# Legend:
# human M3 receptor = human M3 receptor (Homo sapiens (Human), UniProt P20309); test: Radioligand (tritiated N-methylscopolamine) binding assay, M3; details: CHO cell membranes expressing human M3; 1.5 nM tritiated N-methylscopolamine; 90 min, 37° C.; read-out: Ki against M3 receptor (Table 21, M3)
# Method in brief: (§1)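 CHO membranes; 1.5 nM radioligand; 12-point compound dose-response, 10 μM to […]; HEPES/NaCl/MgCl2/EDTA buffer pH 7.4; 90 min, 37 °C. PEI-treated glass fiber filtration, radioactivity counting. Ki from inhibition of binding.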
# human M4 receptor = human M4 receptor (Homo sapiens (Human), UniProt P08173); test: Radioligand (tritiated N-methylscopolamine) binding assay, M4; details: Ki against the M4 receptor; membranes from CHO cells expressing human M4; tritiated N-methylscopolamine 1.5 nM; read-out: Ki
# Method in brief: as §1
# human M5 receptor = human M5 receptor (Homo sapiens (Human), UniProt P08912); test: Radioligand (tritiated N-methylscopolamine) binding assay, M5; details: CHO cell membranes expressing human M5; 1.5 nM tritiated N-methylscopolamine; 90 min, 37° C.; read-out: Ki against M5 receptor (Table 21, M5)
# Method in brief: as §1
# human M2 receptor = human M2 receptor (Homo sapiens (Human), UniProt P08172); test: Radioligand (tritiated N-methylscopolamine) binding assay, M2; details: CHO cell membranes expressing human M2; 1.5 nM tritiated N-methylscopolamine; 90 min, 37° C.; read-out: Ki against M2 receptor (Table 21, M2)
# Method in brief: as §1
# human M1 receptor = human M1 receptor (Homo sapiens (Human), UniProt P11229); test: Radioligand (tritiated N-methylscopolamine) binding assay, M1; details: CHO cell membranes expressing human M1; 1.5 nM tritiated N-methylscopolamine; 90 min, 37° C.; read-out: Ki against M1 receptor (Table 21, M1)
# Method in brief: as §1
# human M2 receptor, sequence (P08172 whole entry): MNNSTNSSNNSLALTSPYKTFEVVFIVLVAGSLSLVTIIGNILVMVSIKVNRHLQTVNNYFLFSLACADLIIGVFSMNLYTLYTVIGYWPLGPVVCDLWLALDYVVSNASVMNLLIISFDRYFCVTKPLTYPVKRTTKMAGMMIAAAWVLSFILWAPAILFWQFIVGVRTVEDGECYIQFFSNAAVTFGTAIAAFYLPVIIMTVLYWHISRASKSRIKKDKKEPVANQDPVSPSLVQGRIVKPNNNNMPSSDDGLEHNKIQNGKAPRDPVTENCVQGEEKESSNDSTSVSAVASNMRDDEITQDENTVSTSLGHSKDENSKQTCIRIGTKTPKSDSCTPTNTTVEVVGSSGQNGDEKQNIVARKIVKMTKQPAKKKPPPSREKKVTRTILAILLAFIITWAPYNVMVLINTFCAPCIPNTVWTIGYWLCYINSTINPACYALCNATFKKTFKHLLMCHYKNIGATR
# human M4 receptor, sequence (P08173 whole entry): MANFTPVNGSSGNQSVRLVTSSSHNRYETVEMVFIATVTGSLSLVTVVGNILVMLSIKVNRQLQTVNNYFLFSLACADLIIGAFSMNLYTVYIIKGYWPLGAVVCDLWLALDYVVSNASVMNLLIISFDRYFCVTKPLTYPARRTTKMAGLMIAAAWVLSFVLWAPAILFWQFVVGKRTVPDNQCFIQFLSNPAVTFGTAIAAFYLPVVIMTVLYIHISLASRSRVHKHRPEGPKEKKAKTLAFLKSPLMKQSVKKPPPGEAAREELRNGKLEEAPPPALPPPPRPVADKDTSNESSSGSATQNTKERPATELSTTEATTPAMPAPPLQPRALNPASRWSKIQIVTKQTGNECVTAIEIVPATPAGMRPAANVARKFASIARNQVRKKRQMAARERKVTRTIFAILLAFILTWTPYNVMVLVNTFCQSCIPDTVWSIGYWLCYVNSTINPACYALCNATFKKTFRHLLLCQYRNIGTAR
# human M3 receptor, sequence (P20309 whole entry): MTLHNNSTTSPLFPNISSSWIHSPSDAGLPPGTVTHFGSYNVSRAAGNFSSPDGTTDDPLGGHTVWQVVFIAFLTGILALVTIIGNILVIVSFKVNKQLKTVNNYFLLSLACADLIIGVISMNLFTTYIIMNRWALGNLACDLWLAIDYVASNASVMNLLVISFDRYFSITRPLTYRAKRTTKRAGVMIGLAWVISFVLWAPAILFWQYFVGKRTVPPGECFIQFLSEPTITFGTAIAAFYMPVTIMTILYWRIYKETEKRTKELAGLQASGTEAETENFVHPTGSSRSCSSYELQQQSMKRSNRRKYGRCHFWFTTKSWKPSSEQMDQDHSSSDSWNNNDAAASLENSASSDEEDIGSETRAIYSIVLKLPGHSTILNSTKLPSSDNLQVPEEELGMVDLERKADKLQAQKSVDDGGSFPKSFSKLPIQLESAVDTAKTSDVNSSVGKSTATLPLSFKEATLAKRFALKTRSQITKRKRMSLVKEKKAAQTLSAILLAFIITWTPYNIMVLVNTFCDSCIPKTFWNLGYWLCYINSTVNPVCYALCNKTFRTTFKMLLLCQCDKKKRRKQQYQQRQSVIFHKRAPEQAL
# human M5 receptor, sequence (P08912 whole entry): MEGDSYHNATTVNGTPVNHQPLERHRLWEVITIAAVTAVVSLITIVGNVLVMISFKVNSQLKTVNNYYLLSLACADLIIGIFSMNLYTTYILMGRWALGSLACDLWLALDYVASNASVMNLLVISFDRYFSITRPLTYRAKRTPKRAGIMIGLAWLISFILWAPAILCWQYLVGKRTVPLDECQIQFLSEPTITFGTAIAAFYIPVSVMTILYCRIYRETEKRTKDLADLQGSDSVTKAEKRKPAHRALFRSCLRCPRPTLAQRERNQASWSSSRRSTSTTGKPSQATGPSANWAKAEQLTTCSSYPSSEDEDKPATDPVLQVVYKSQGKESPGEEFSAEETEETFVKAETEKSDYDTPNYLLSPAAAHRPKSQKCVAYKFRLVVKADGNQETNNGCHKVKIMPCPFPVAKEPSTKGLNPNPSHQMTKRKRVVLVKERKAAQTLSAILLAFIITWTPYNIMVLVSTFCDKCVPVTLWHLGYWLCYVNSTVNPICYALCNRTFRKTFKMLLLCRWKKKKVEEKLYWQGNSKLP
# human M1 receptor, sequence (P11229 whole entry): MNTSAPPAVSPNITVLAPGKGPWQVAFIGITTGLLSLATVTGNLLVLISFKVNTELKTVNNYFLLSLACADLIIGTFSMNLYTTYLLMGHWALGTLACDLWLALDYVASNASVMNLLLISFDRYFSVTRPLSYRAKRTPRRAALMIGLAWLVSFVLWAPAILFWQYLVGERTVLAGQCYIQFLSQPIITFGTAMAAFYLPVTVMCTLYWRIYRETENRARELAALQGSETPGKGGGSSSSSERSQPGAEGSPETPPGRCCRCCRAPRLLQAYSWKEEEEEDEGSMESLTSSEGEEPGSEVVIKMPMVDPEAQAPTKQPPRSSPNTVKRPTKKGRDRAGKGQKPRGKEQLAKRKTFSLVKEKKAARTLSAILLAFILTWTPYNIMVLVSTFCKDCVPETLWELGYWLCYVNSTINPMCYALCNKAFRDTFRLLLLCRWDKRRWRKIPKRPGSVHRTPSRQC
Compound,Ki (human M3 receptor) [nM],Ki (human M4 receptor) [nM],Ki (human M5 receptor) [nM],Ki (human M2 receptor) [nM],Ki (human M1 receptor) [nM]
"O=C(NCCC1(CO)CCN(Cc2ccccc2)CC1)C1CCN(c2ccc(OC(F)(F)F)c(F)c2)CC1 [9-64, N-{2-[1-benzyl-4-(hydroxymethyl)piperidin-4-yl]ethyl}-1-[3-fluoro-4-(trifluoromethoxy)phenyl]piperidine-4-carboxamide]",> 1000,< 10,> 1000,100 to 1000,100 to 1000
"N#Cc1cc(N2CCC(C(=O)NCCC3CCN(Cc4ccccc4)CC3)CC2)ccc1F [9-73, N-[2-(1-benzylpiperidin-4-yl)ethyl]-1-(3-cyano-4-fluorophenyl)piperidine-4-carboxamide]",> 1000,< 10,> 1000,100 to 1000,> 1000
"O=C(NCCC1CCN(Cc2ccccc2)CC1)C1CCN(c2ccc3c(c2)OC(F)(F)O3)CC1 [10-5, N-[2-(1-benzylpiperidin-4-yl)ethyl]-1-(2,2-difluoro-2H-1,3-benzodioxol-5-yl)piperidine-4-carboxamide]",> 1000,< 10,> 1000,10 to 100,100 to 1000
"CC1CN(c2ccc(OC(F)(F)F)cc2)CCC1C(=O)NCCC1CCN(Cc2ccccc2)CC1 (centres unmarked) [10-6, N-[2-(1-benzylpiperidin-4-yl)ethyl]-3-methyl-1-[4-(trifluoromethoxy)phenyl]piperidine-4-carboxamide]",> 1000,< 10,> 1000,100 to 1000,100 to 1000
"O=C(NCCC1CCN(Cc2ccccc2)CC1)C1CCN(c2cc(F)c(F)c(F)c2)CC1 [10-7, N-[2-(1-benzylpiperidin-4-yl)ethyl]-1-(3,4,5-trifluorophenyl)piperidine-4-carboxamide]",> 1000,< 10,> 1000,100 to 1000,> 1000
"O=C(NCCC1CCN(Cc2ccccc2)CC1)C1CCN(c2ccc(OC(F)(F)F)c(F)c2)CC1 [10-8, N-[2-(1-benzylpiperidin-4-yl)ethyl]-1-[3-fluoro-4-(trifluoromethoxy)phenyl]piperidine-4-carboxamide]",> 1000,< 10,> 1000,100 to 1000,> 1000
"O=C(NCCC1CCN(Cc2ccccc2)CC1)C1CCN(c2ccc(C(F)(F)F)cc2)CC1 [10-9, N-[2-(1-benzylpiperidin-4-yl)ethyl]-1-[4-(trifluoromethyl)phenyl]piperidine-4-carboxamide]",> 1000,< 10,> 1000,100 to 1000,> 1000
"COc1cc(N2CCC(C(=O)NCCC3CCN(Cc4ccccc4)CC3)CC2)ccc1OC(F)(F)F [10-10, N-[2-(1-benzylpiperidin-4-yl)ethyl]-1-[3-methoxy-4-(trifluoromethoxy)phenyl]piperidine-4-carboxamide]",> 1000,< 10,> 1000,100 to 1000,100 to 1000
"O=C(NCCC1CCN(Cc2ccccc2)CC1)C1CCN(c2ccc(F)c(OC(F)(F)F)c2)CC1 [10-11, N-[2-(1-benzylpiperidin-4-yl)ethyl]-1-[4-fluoro-3-(trifluoromethoxy)phenyl]piperidine-4-carboxamide]",> 1000,< 10,> 1000,100 to 1000,100 to 1000
"C[C@@H]1CN(c2ccc(OC(F)(F)F)cc2F)CCN1C(=O)NCCC1CCN(Cc2ccccc2)CC1 [10-12, (2R)-N-[2-(1-benzylpiperidin-4-yl)ethyl]-4-[2-fluoro-4-(trifluoromethoxy)phenyl]-2-methylpiperazine-1-carboxamide]",100 to 1000,< 10,100 to 1000,10 to 100,100 to 1000
"N#Cc1ccc(N2CCC(C(=O)NCCC3CCN(Cc4ccccc4)CC3)CC2)cc1OC(F)(F)F [10-13, N-[2-(1-benzylpiperidin-4-yl)ethyl]-1-[4-cyano-3-(trifluoromethoxy)phenyl]piperidine-4-carboxamide]",> 1000,< 10,> 1000,100 to 1000,100 to 1000
"N#Cc1cc(F)cc(N2CCC(C(=O)NCCC3CCN(Cc4ccccc4)CC3)CC2)c1 [10-14, N-[2-(1-benzylpiperidin-4-yl)ethyl]-1-(3-cyano-5-fluorophenyl)piperidine-4-carboxamide]",> 1000,< 10,> 1000,100 to 1000,> 1000
"CC1CN(c2cccc(OC(F)(F)F)c2)CCC1C(=O)NCCC1CCN(Cc2ccccc2)CC1 (centres unmarked) [10-18, N-[2-(1-benzylpiperidin-4-yl)ethyl]-3-methyl-1-[3-(trifluoromethoxy)phenyl]piperidine-4-carboxamide]",> 1000,< 10,> 1000,100 to 1000,> 1000
"O=C(NCCC1CCN(Cc2ccccc2)CC1)C1CCN(c2cccc(OC(F)(F)F)c2)CC1 [10-19, N-[2-(1-benzylpiperidin-4-yl)ethyl]-1-[3-(trifluoromethoxy)phenyl]piperidine-4-carboxamide]",> 1000,< 10,> 1000,100 to 1000,100 to 1000
"N#Cc1cc(N2CCC(C(=O)NCCC3(O)CCN(Cc4ccccc4)CC3)CC2)ccc1OC(F)(F)F [10-20, N-[2-(1-benzyl-4-hydroxypiperidin-4-yl)ethyl]-1-[3-cyano-4-(trifluoromethoxy)phenyl]piperidine-4-carboxamide]",> 1000,< 10,> 1000,100 to 1000,> 1000
"O=C(NCCC1CCN(Cc2ccccc2)CC1)C1CCN(c2ccc(F)c(F)c2)CC1 [10-21, N-[2-(1-benzylpiperidin-4-yl)ethyl]-1-(3,4-difluorophenyl)piperidine-4-carboxamide]",> 1000,< 10,> 1000,100 to 1000,> 1000
"O=C(NCCC1CCN(Cc2ccccc2)CC1)C1CCN(c2cc(F)cc(F)c2)CC1 [10-22, N-[2-(1-benzylpiperidin-4-yl)ethyl]-1-(3,5-difluorophenyl)piperidine-4-carboxamide]",> 1000,< 10,> 1000,100 to 1000,> 1000
"N#Cc1cc(OC(F)(F)F)cc(N2CCC(C(=O)NCCC3CCN(Cc4ccccc4)CC3)CC2)c1 [10-23, N-[2-(1-benzylpiperidin-4-yl)ethyl]-1-[3-cyano-5-(trifluoromethoxy)phenyl]piperidine-4-carboxamide]",> 1000,< 10,> 1000,10 to 100,100 to 1000
"COc1cc(C#N)cc(N2CCC(C(=O)NCCC3CCN(Cc4ccccc4)CC3)CC2)c1 [10-54, N-[2-(1-benzylpiperidin-4-yl)ethyl]-1-(3-cyano-5-methoxyphenyl)piperidine-4-carboxamide]",> 1000,< 10,> 1000,10 to 100,100 to 1000
"Cc1cc(N2CCC(C(=O)NCCC3CCN(Cc4ccccc4)CC3)CC2)ccc1OC(F)(F)F [10-56, N-[2-(1-benzylpiperidin-4-yl)ethyl]-1-[3-methyl-4-(trifluoromethoxy)phenyl]piperidine-4-carboxamide]",100 to 1000,< 10,> 1000,10 to 100,100 to 1000
"N#Cc1cc(N2CCC(C(=O)NCCC3CCN(Cc4ccccc4)CC3)CC2)ccc1OC(F)(F)F [10-57, N-[2-(1-benzylpiperidin-4-yl)ethyl]-1-[3-cyano-4-(trifluoromethoxy)phenyl]piperidine-4-carboxamide]",> 1000,< 10,> 1000,10 to 100,100 to 1000
"N#Cc1cc(N2CCC(C(=O)NC[C@@H](O)C3CCN(Cc4ccccc4)CC3)CC2)ccc1F [10-58, N-[(2S)-2-(1-benzylpiperidin-4-yl)-2-hydroxyethyl]-1-(3-cyano-4-fluorophenyl)piperidine-4-carboxamide]",> 1000,< 10,> 1000,> 1000,> 1000
"C[C@H]1CN(c2ccc(C#N)cn2)CCC1C(=O)NCCC1CCN(Cc2ccccc2)CC1 (stereo partly drawn) [10-79, (3R)-N-[2-(1-benzylpiperidin-4-yl)ethyl]-1-(5-cyanopyridin-2-yl)-3-methylpiperidine-4-carboxamide]",> 1000,< 10,100 to 1000,10 to 100,100 to 1000
"C[C@H]1CN(c2ccc(C(F)(F)F)cn2)CCC1C(=O)NCCC1CCN(Cc2ccccc2)CC1 (stereo partly drawn) [10-80, (3R)-N-[2-(1-benzylpiperidin-4-yl)ethyl]-3-methyl-1-[5-(trifluoromethyl)pyridin-2-yl]piperidine-4-carboxamide]",100 to 1000,< 10,100 to 1000,10 to 100,10 to 100
"C[C@H]1CN(c2ncc(C(F)(F)F)cc2F)CCC1C(=O)NCCC1CCN(Cc2ccccc2)CC1 (stereo partly drawn) [10-81, (3R)-N-[2-(1-benzylpiperidin-4-yl)ethyl]-1-[3-fluoro-5-(trifluoromethyl)pyridin-2-yl]-3-methylpiperidine-4-carboxamide]",10 to 100,< 10,100 to 1000,10 to 100,10 to 100

# From patent US11033539B2, “Compounds of formulas (VII), (VIII), (IX), (XI), (XII), (XIII), and (XIV) as muscarinic receptor 4(M4) antagonists for treating neurological diseases” (Neurocrine Biosciences, Inc., priority 2015, dated 2021)
